The text below walks through data of patent US12377087B2, “Compounds for the treatment of cancer” (UNIVERSITY OF LOUISVILLE RESEARCH FOUNDATION, INC., priority 2015, dated 2025).

Data set [1] deals with H460 cells. The data set is described as follows: Glycolysis assay (3H2O from 5-[3H]glucose) in H460 cells. Format: cell-based, human. The settings on record: H460, 10 μM 5MPN, 6-72 hours. Here is the method:
Cells growing in 6-well plates were incubated in 500 μl of complete medium containing 1 μCi of 5-[^3H]glucose per well for 60 min in 5% CO2 at 37° C. Media was collected, ^3H2O formed via glycolysis from the 5-[^3H]glucose measured and counts normalized as previously described. For example, the medium was then collected and centrifuged to pellet any suspended cells. To separate the ^3H2O formed via glycolysis from the 5-[^3H]glucose added to the medium, an evaporation technique in a sealed system was utilized. Briefly, 150 μl aliquots of medium were added to open tubes that were placed upright inside scintillation vials containing 1 ml of H2O. The scintillation vials were sealed, and the ^3H2O produced by glycolysis through enolase and released to the medium was allowed to equilibrate with the H2O in the outer vial for 48 h at 37° C. The amounts of ^3H2O that had diffused into the surrounding H2O was measured on a Tri-Carb 2910 liquid scintillation analyzer (Perkin Elmer) and compared with ^3H2O and 5-[^3H]glucose standards. Protein concentration was determined using the BCA assay and counts were normalized to protein concentration. All data are expressed as the mean±SD of three experiments. Statistical significance was assessed by the two-sample t test (independent variable).

The subject of data set [2] is H460 cells. Briefly: cell cycle analysis by flow cytometry in H460 cells. The format is cell-based, human. Here is the method: (§1) Flow Cytometry: To measure apoptosis, cells were stained with annexin V and propidium iodide and examined as previously described. […] DMSO used as vehicle. For cell cycle experiments, cells were detached, washed with cold PBS and fixed in 70% ethanol (4° C. 30 minutes). The cells then were pelleted by centrifugation, resuspended in PBS containing PI and RNase A, incubated at 37° C. in the dark for 30 minutes and analyzed by flow cytometry (BD FACSCalibur). Data were analyzed using FlowJo software (TREE STAR Inc.). Results were calculated as the mean±SD of three experiments.
(In general: Flow cytometry measures light scatter and fluorescence of single cells or particles in a stream.)

The next data set concerns H441. Briefly: viable cell count of H441 cells. Format: cell-based. The settings on record: H441, 48 hours. Here is the method: (§2) Cell Viability: Cells were incubated in 20% trypan blue (Sigma) for 5 minutes. Cells excluding trypan blue were counted using a standard hemocytometer (Hausser Scientific) to determine total numbers of viable cells. Data are expressed as mean±SD of three experiments.

Data set [3] concerns LLC xenografts. Briefly: Ki67 immunohistochemistry of LLC xenografts. The format is in vivo, C57BL/6 mice. The settings on record: 120 mg/kg by gavage daily, two weeks. Here is the method:
Immunohistochemistry: Formalin-fixed, paraffin-embedded tissue sections were processed as previously described then incubated with anti-Ki-67 primary antibody (Abeam) overnight, followed by HRP-linked goat anti-rabbit secondary antibody (1:300. Pierce). Sections were developed with 3,3′-diaminobenzidine tetrahydrochloride, counterstained, scanned and analyzed with the positive pixel count algorithm as previously described. Data are depicted as % positive pixels/total pixels±SD.

The subject of the next data set is Lewis lung carcinomas. Briefly: Lewis lung carcinoma tumor growth in mice. The format is in vivo, C57BL/6 mice.
A further data set has as its system MDA-MB-231. The data set is described as follows: viable cell count of MDA-MB-231 cells. Format: cell-based. The settings on record: MDA-MB-231, 48 hours. Here is the method:
as §2

Data set [4] deals with LLC xenografts. The data set is described as follows: intratumoral F2,6BP in LLC xenografts. The format is in vivo, C57BL/6 mice. The settings on record: 120 mg/kg by gavage daily, 10 days. Here is the method:
F2,6BP measurements: Cells or tissues were prepared as previously described and F2,6BP content measured using a coupled enzyme reaction following the method of Van Schaftingen et at (Van Schaftingen E et al. A kinetic study of pyrophosphate: fructose-6-phosphate phosphotransferase from potato tubers. Application to a microassay of fructose 2,6-bisphosphate. Eur J Biochem 1982 December; 129(1): 191-5) and normalized to total cellular protein measured by the bicinchoninic acid assay (BCA, Thermo Scientific). […] In order to measure F2,6BP, cells were harvested, washed with PBS, lysed in NaOH/Tris acetate by heating at 80° C. and lysates neutralized to pH 7.2. F2,6BP content was measured using a coupled enzyme reaction following the method of Van Schaftingen et al (Eur J Biochem. 1982; 129(1): 191-195). The F2,6BP concentration was normalized to total cellular protein measured by the bicinchoninic acid assay (BCA, Thermo Scientific) All data are expressed as the mean±SD of three experiments. Statistical significance was assessed by the two-sample t test (independent variable).
At the end of the experiment, animals were euthanized, tumors removed and sections fixed in 10% formaldehyde for immunohistochemistry or snap-frozen in liquid nitrogen for analyses. […]

Data set [5] can be described thus: two-week oral toxicity study. Format: in vivo. The settings on record: C57BL/6 mice, 120 mg/kg PO for two weeks. Here is the method: Given the potential usefulness of oral administration in terms of cost and convenience, we elected to pursue this route in subsequent toxicity and efficacy pre-clinical studies. Initially, we dosed C57BL/6 mice with 120 mg/kg PO for two weeks and analyzed the effect on complete blood counts, electrolytes, hepatic and renal function, body mass and the gross and histological appearance of the brain, heart, lungs, liver, kidneys and spleen. […] Next, the effects of oral administration of 5MPN on intratumoral F2,6BP and glucose uptake by LLC xenografts was examined. […] It was confirmed that 5MPN caused a G1 arrest in LLC cells in vitro similar to H460 cells (FIG. 4G). The number of Ki67-positive cells was examined since Ki-67 expression correlates with later S and G2 phases of the cell cycle (Sasaki K et al. The cell cycle associated change of the Ki-67 reactive nuclear antigen expression. J Cell Physiol 1987 December; 133(3):579-84).

The next data set deals with LLC cells. The data set is described as follows: in vitro cell cycle analysis of LLC cells. The conditions noted are these: 10 μM 5MPN. The format is cell-based. Here is the method: as §1

For `COc1cccc2c(NCCCCCO[N+](=O)[O-])ccnc12` [5MPN, 5-[(8-methoxyquinolin-4-yl)amino]pentyl nitrate], the glycolysis entry in the data set with H460 cells [1] is recorded as “reduced”. For the same compound, the “cell cycle distribution (G1, S, G2)” value in the data set on H460 cells [2] (H460, 10 μM 5MPN) is “marked G1 arrest”. For the same compound, the “G1 arrest with over-expression of PFKFB4” value in the data set with H460 cells [2] (H460 transfected with PFKFB4, 10 μM 5MPN, 24 hours) was “reversed”. The “growth, viable cells” value with H441 and in the data set with MDA-MB-231 was “dose-dependent reduction in growth” each time. Moreover, the “Ki67-positive cells in LLC xenografts” value in the data set with LLC xenografts [3] is “reduction in Ki67-positive cells”. For the same compound, the body weight entry in the data set with Lewis lung carcinomas (LLC-bearing C57BL/6 mice, 120 mg/kg oral daily) is given as “without affecting body weight”. For the same compound, in the data set on Lewis lung carcinomas (syngeneic C57BL/6 mice, 120 mg/kg daily by gavage, two weeks), the “tumor growth of Lewis lung carcinomas” value is recorded as “suppressed the growth”. The “intratumoral F2,6BP” value with LLC xenografts [4] is on record as “marked reduction”. Further, the “toxicity: blood counts, electrolytes, hepatic and renal function, body mass, organ histology, behavioral or clinical changes” value in data set [5] is “no signs of toxicity”. The “cell cycle arrest in LLC cells in vitro” value in the data set on LLC cells is on record as “G1 arrest”.
